ChEMBL document CHEMBL3885881, “DrugMatrix”

Species: Rattus norvegicus
Assay: DrugMatrix - Regimen: Daily Repeat
Format: toxicity, organism-based, Sprague-Dawley
Set-up: regimen Daily Repeat, gender Male, age 6-8 weeks
Settings: in vivo, po, route oral GAVAGE, vehicle .5 % CMC; for ABSOLUTE BASOPHIL / ABSOLUTE EOSINOPHIL / ABSOLUTE LYMPHOCYTE / ABSOLUTE MONOCYTE / ABSOLUTE SEGMENTED NEUTROPHIL / BASOPHIL / EOSINOPHIL / ERYTHROCYTE COUNT / HEMATOCRIT / HEMOGLOBIN / LEUKOCYTE COUNT / LYMPHOCYTE / MEAN CORPUSCULAR HEMOGLOBIN / MEAN CORPUSCULAR HEMOGLOBIN CONCENTRATION / MEAN CORPUSCULAR VOLUME / MONOCYTE / NEUTROPHIL / NUCLEATED RED BLOOD CELLS / PLATELET COUNT: tissue Blood; for ALANINE AMINOTRANSFERASE / ALBUMIN / ALKALINE PHOSPHATASE / ASPARTATE AMINOTRANSFERASE / BLOOD UREA NITROGEN / CARBON DIOXIDE / CHLORIDE / CHOLESTEROL / CREATINE PHOSPHOKINASE / CREATININE / GLUCOSE / LACTATE DEHYDROGENASE / LIPASE / PHOSPHORUS / POTASSIUM / SODIUM / TOTAL BILIRUBIN / TOTAL PROTEIN / URIC ACID: tissue Plasma
[1] = 19 mg/kg, 120 h, dose level High, time 5 day
[2] = […], 72 h, dose 6.6 mg/Kg, dose level Low, time 3 day
[3] = […], 120 h, dose 6.6 mg/Kg, dose level Low, time 5 day

## NCC(CC(=O)O)c1ccc(Cl)cc1 (centres undefined) [BACLOFEN]
[1]
  ABSOLUTE BASOPHIL: 0 CELLS/uL
  ABSOLUTE EOSINOPHIL: 0 CELLS/uL
  ABSOLUTE LYMPHOCYTE: 14854 CELLS/uL
  ABSOLUTE MONOCYTE: 102.67 CELLS/uL
  ABSOLUTE SEGMENTED NEUTROPHIL: 1043.33 CELLS/uL
  BASOPHIL: 0%
  EOSINOPHIL: 0%
  ERYTHROCYTE COUNT: 5.41 x10E6/uL
  HEMATOCRIT: 33.6%
  HEMOGLOBIN: 13.33 G/DL
  LEUKOCYTE COUNT: 16 x10E3/uL
  LYMPHOCYTE: 93%
  MEAN CORPUSCULAR HEMOGLOBIN: 24.7 pg
  MEAN CORPUSCULAR HEMOGLOBIN CONCENTRATION: 39.73 G/DL
  MEAN CORPUSCULAR VOLUME: 62.17 fL
  MONOCYTE: 0.67%
  NEUTROPHIL: 6.33%
  NUCLEATED RED BLOOD CELLS: 0 /100WBC
  PLATELET COUNT: 1022.33 x10E3/uL
  ALANINE AMINOTRANSFERASE: 54.67 u/L
  ALBUMIN: 4.1 G/DL
  ALKALINE PHOSPHATASE: 431.33 u/L
  ASPARTATE AMINOTRANSFERASE: 87.67 u/L
  BLOOD UREA NITROGEN: 19.67 mg/dL
  CARBON DIOXIDE: 26.33 mmol/L
  CHLORIDE: 103.67 MEQ/L
  CHOLESTEROL: 59.33 mg/dL
  CREATINE PHOSPHOKINASE: 272.67 u/L
  CREATININE: 0.23 mg/dL
  GLUCOSE: 160 mg/dL
  LACTATE DEHYDROGENASE: 391 u/L
  LIPASE: 9 u/L
  PHOSPHORUS: 11.13 mg/dL
  POTASSIUM: 6.54 MEQ/L
  SODIUM: 147.27 MEQ/L
  TOTAL BILIRUBIN: 0.3 mg/dL
  TOTAL PROTEIN: 5.87 G/DL
  URIC ACID: 1.4 mg/dL
[2]
  ABSOLUTE BASOPHIL: 0 CELLS/uL
  ABSOLUTE EOSINOPHIL: 196 CELLS/uL
  ABSOLUTE LYMPHOCYTE: 14434 CELLS/uL
  ABSOLUTE MONOCYTE: 264.67 CELLS/uL
  ABSOLUTE SEGMENTED NEUTROPHIL: 1038.67 CELLS/uL
  BASOPHIL: 0%
  EOSINOPHIL: 1%
  ERYTHROCYTE COUNT: 5.8 x10E6/uL
  HEMATOCRIT: 36.17%
  HEMOGLOBIN: 13.87 G/DL
  LEUKOCYTE COUNT: 15.93 x10E3/uL
  LYMPHOCYTE: 90.67%
  MEAN CORPUSCULAR HEMOGLOBIN: 24.03 pg
  MEAN CORPUSCULAR HEMOGLOBIN CONCENTRATION: 38.37 G/DL
  MEAN CORPUSCULAR VOLUME: 62.57 fL
  MONOCYTE: 1.67%
  NEUTROPHIL: 6.67%
  NUCLEATED RED BLOOD CELLS: 0 /100WBC
  PLATELET COUNT: 1144 x10E3/uL
  ALANINE AMINOTRANSFERASE: 51.67 u/L
  ALBUMIN: 4.27 G/DL
  ALKALINE PHOSPHATASE: 456 u/L
  ASPARTATE AMINOTRANSFERASE: 81.33 u/L
  BLOOD UREA NITROGEN: 18.33 mg/dL
  CARBON DIOXIDE: 27 mmol/L
  CHLORIDE: 100 MEQ/L
  CHOLESTEROL: 67 mg/dL
  CREATINE PHOSPHOKINASE: 351.67 u/L
  CREATININE: 0.23 mg/dL
  GLUCOSE: 153.33 mg/dL
  LACTATE DEHYDROGENASE: 367.67 u/L
  LIPASE: 10.67 u/L
  PHOSPHORUS: 12.53 mg/dL
  POTASSIUM: 7.1 MEQ/L
  SODIUM: 142.1 MEQ/L
  TOTAL BILIRUBIN: 0.2 mg/dL
  TOTAL PROTEIN: 5.93 G/DL
  URIC ACID: 1.63 mg/dL
[3]
  ABSOLUTE BASOPHIL: 0 CELLS/uL
  ABSOLUTE EOSINOPHIL: 160.33 CELLS/uL
  ABSOLUTE LYMPHOCYTE: 14603.33 CELLS/uL
  ABSOLUTE MONOCYTE: 300.67 CELLS/uL
  ABSOLUTE SEGMENTED NEUTROPHIL: 1335.67 CELLS/uL
  BASOPHIL: 0%
  EOSINOPHIL: 1%
  ERYTHROCYTE COUNT: 5.47 x10E6/uL
  HEMATOCRIT: 35.43%
  HEMOGLOBIN: 13.57 G/DL
  LEUKOCYTE COUNT: 16.4 x10E3/uL
  LYMPHOCYTE: 89%
  MEAN CORPUSCULAR HEMOGLOBIN: 24.8 pg
  MEAN CORPUSCULAR HEMOGLOBIN CONCENTRATION: 38.3 G/DL
  MEAN CORPUSCULAR VOLUME: 64.8 fL
  MONOCYTE: 1.67%
  NEUTROPHIL: 8.33%
  NUCLEATED RED BLOOD CELLS: 0 /100WBC
  PLATELET COUNT: 1121.33 x10E3/uL
  ALANINE AMINOTRANSFERASE: 51 u/L
  ALBUMIN: 4.23 G/DL
  ALKALINE PHOSPHATASE: 364.33 u/L
  ASPARTATE AMINOTRANSFERASE: 94.33 u/L
  BLOOD UREA NITROGEN: 19 mg/dL
  CARBON DIOXIDE: 28.33 mmol/L
  CHLORIDE: 100.67 MEQ/L
  CHOLESTEROL: 71 mg/dL
  CREATINE PHOSPHOKINASE: 448 u/L
  CREATININE: 0.15 mg/dL
  GLUCOSE: 140.33 mg/dL
  LACTATE DEHYDROGENASE: 505 u/L
  LIPASE: 10 u/L
  PHOSPHORUS: 11.6 mg/dL
  POTASSIUM: 6.27 MEQ/L
  SODIUM: 143.57 MEQ/L
  TOTAL BILIRUBIN: 0.23 mg/dL
  TOTAL PROTEIN: 6.07 G/DL
  URIC ACID: 1.37 mg/dL
